Where two headings read alike, the source gives them in different places.
Legend:
[1] = test system: Key Broadleaf Weed and Crop Species; assay: Post-Emergent Test II (Table 5); format: in vivo; settings: post-emergence, 336 h; for pest or weed control at 70 g/ha: application rate 70 (kg ai/ha; footnote: g ai/ha); for pest or weed control at 140 g/ha: application rate 140 (kg ai/ha; footnote: g ai/ha)
Method in brief: (§1)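 Plants at first or second true-leaf stage, grown 7-21 days in greenhouse, were sprayed post-emergence at 187 L/ha with compounds in acetone/DMSO/water/crop oil/surfactant mixture at the high rate and ½× to 1/16× dilutions. Injury scored visually after 14 days, 0 (none) to 100% (complete kill), versus untreated plants.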

[2] = test system: Key Grass and Sedge Weeds as well as Grass Crops; assay: Post-Emergent Test II (Table 6); format: in vivo; settings: post-emergence, 336 h, 14 days after application; for pest or weed control at 70 g/ha: 70 g ai/ha; for pest or weed control at 140 g/ha: 140 g ai/ha
Method in brief: as §1

[3] = Euphorbia heterophylla, EPHHL: wild poinsettia (Euphorbia heterophylla), read-out: Visual Growth Reduction (%) 14 Days After Application EPHHL
[4] = Viola tricolor, VIOTR: wild pansy (Viola tricolor), read-out: Visual Growth Reduction (%) 14 Days After Application VIOTR
[5] = CYPSS, read-out: Visual Growth Reduction (%) 14 Days After Application CYPSS
[6] = DIGSA: crabgrass (Digitaria sanguinalis), read-out: Visual Growth Reduction (%) 14 Days After Application DIGSA
[7] = ECHSS, read-out: Visual Growth Reduction (%) 14 Days After Application ECHSS
[8] = ORYSS (crop), read-out: Visual Growth Reduction (%) 14 Days After Application ORYSS
[9] = SETFA: giant foxtail (Setaria faberi), read-out: Visual Growth Reduction (%) 14 Days After Application SETFA
[10] = SORVU: grain sorghum (Sorghum vulgare), read-out: Visual Growth Reduction (%) 14 Days After Application SORVU
[11] = TRZSS (crop), read-out: Visual Growth Reduction (%) 14 Days After Application TRZSS
[12] = ZEAMX: maize, corn (Zea mays), read-out: Visual Growth Reduction (%) 14 Days After Application ZEAMX

In the case of `COC(=O)c1nc(-c2ccc(C(F)(F)F)nc2)nc(N)c1Cl` [Compound 82, methyl 6-amino-5-chloro-2-(6-(trifluoromethyl)pyridin-3-yl)pyrimidine-4-carboxylate], the pest or weed control at 70 g/ha [1, 3] is reported as 0 to 29%, the pest or weed control at 140 g/ha [1, 3] is reported as 0 to 29% and the pest or weed control at 70 g/ha [1, 4] is reported as 0 to 29%. The pest or weed control at 140 g/ha [1, 4] was 0 to 29%, the pest or weed control at 70 g/ha [2, 5] was 0 to 29% and the pest or weed control at 140 g/ha [2, 5] was 0 to 29%. It also gave a pest or weed control at 70 g/ha [2, 6] of 0 to 29%, a pest or weed control at 140 g/ha [2, 6] of 0 to 29% and a pest or weed control at 70 g/ha [2, 7] of 0 to 29%. The pest or weed control at 140 g/ha [2, 7] was 0 to 29%, the pest or weed control at 70 g/ha [2, 8] was 0 to 29% and the pest or weed control at 140 g/ha [2, 8] was 0 to 29%. It also gave a pest or weed control at 70 g/ha [2, 9] of 0 to 29%, a pest or weed control at 140 g/ha [2, 9] of 0 to 29% and a pest or weed control at 70 g/ha [2, 10] of 0 to 29%. For the same compound, the pest or weed control at 140 g/ha [2, 10] was 0 to 29%, the pest or weed control at 70 g/ha [2, 11] was 0 to 29% and the pest or weed control at 140 g/ha [2, 11] was 0 to 29%. It also gave a pest or weed control at 70 g/ha [2, 12] of 0 to 29%, a pest or weed control at 140 g/ha [2, 12] of 0 to 29% and a melting point of 179 to 181 °C.
